According to US9920073B2, “Compositions useful for inhibiting HIV-1 infection and methods using same” (Drexel University, priority 2013, dated 2018):
Like-named read-outs stand apart in the source and are kept apart here.

What was measured:
Experiment in all cases: microbe, parasite or virus in culture
Assay type in all cases: cell-based
[1] = tested on: HIV-1YU-2
[2] = tested on: amphotropic murine leukemia virus (AMLV); conditions: for IC50: specificity control
[3] = tested on: HIV-1HxBc2; conditions: Human immunodeficiency virus 1, read-out: IC50 HxBc2
[4] = tested on: HIV-1JR-CSF
[5] = Human immunodeficiency virus 1, read-out: IC50 YU-2, single round infection assay
[6] = Murine leukemia virus, read-out: IC50 AMLV, Table 2 screening results
[7] = Human immunodeficiency virus 1, read-out: IC50 JR-CSF
[8] = read-out: IC50 YU-2, single round infection assay
[9] = read-out: IC50 AMLV, Table 2 screening results
[10] = read-out: IC50 JR-CSF, single round infection assay

## Cc1[nH]c2ccccc2c1C(=O)C(=O)N1CCC(C(=O)c2ccc(O)cc2)CC1 [Compound 40]
[1]; [5]
  IC50: > 50 µM
[2]; [6]
  IC50: > 50 µM

## Cc1cccc(C(=O)N2CCN(S(=O)(=O)c3ccc(C)c(C)c3)CC2)c1 [Compound 10]
[1]; [5]
  IC50: > 300 µM
[2]; [6]
  IC50: > 300 µM

## O=C(COc1ncnc2sc(-c3ccccc3)cc12)N1CCN(C(=O)c2ccco2)CC1 [Compound 26]
[1]; [5]
  IC50: > 50 µM
[2]; [6]
  IC50: > 50 µM

## O=C(CCC(=O)N1CCN(C(=O)c2ccccc2)CC1)c1ccc(Cl)s1 [Compound 2]
[1]; [5]
  IC50: > 300 µM
[2]; [6]
  IC50: > 300 µM

## Cc1ncn(-c2ncc(F)c3c(C(=O)C(=O)N4CC5C=NN(c6nnnn6-c6ccccc6)C5C4)c[nH]c23)n1 (stereo not shown) [SC39, 1-(4-fluoro-7-(3-methyl-1H-1,2,4-triazol-1-yl)-1H-pyrrolo[2,3-c]pyridin-3-yl)-2-(1-(1-phenyl-1H-tetrazol-5-yl)-3a,4,6,6a-tetrahydropyrrolo[3,4-c]pyrazol-5(1H)-yl)ethane-1,2-dione]
[3]
  IC50: 35300 ± 9300 nM

## COc1cnc(-n2cnc(C)n2)c2[nH]cc(C(=O)C(=O)N3CC=C(CNC(=O)c4ccccc4)CC3)c12 [SC45, N-((1-(2-(4-methoxy-7-(3-methyl-1H-1,2,4-triazol-1-yl)-1H-pyrrolo[2,3-c]pyridin-3-yl)-2-oxoacetyl)-1,2,3,6-tetrahydropyridin-4-yl)methyl)benzamide]
[4]; [7]
  IC50: 150 ± 9 nM
[3]
  IC50: 100 ± 30 nM

## Cc1cnc2c(S(=O)(=O)N3CCN(C(=O)c4ccc(C)s4)CC3)cccc2c1 [Compound 35]
[1]; [5]
  IC50: > 50 µM
[2]; [6]
  IC50: > 50 µM

## O=C(c1ccccc1)N1CCN(S(=O)(=O)c2ccc3c(c2)CCCC3)CC1 [Compound 13]
[1]; [5]
  IC50: 117 µM
[2]; [6]
  IC50: 197 µM

## COc1cnc(-n2cnc(C)n2)c2[nH]cc(C(=O)C(=O)N3CC4C=NN(c5cccc(C)n5)C4C3)c12 (stereo not shown) [SC24, 1-(4-methoxy-7-(3-methyl-1H-1,2,4-triazol-1-yl)-1H-pyrrolo[2,3-c]pyridin-3-yl)-2-(1-(6-methylpyridin-2-yl)-3a,4,6,6a-tetrahydropyrrolo[3,4-c]pyrazol-5(1H)-yl)ethane-1,2-dione]
[4]; [7]
  IC50: 700 ± 400 nM

## O=C(c1ccccc1)N1CCN(C(=O)c2ccc(N3CCOCC3)c([N+](=O)[O-])c2)CC1 [Compound 29]
[1]; [5]
  IC50: > 50 µM
[2]; [6]
  IC50: > 50 µM

## O=C(COc1cccc2ccccc12)N1CCN(C(=O)c2ccccc2)CC1 [Compound 12]
[1]; [5]
  IC50: 53.3 ± 3.7 µM
[2]; [6]
  IC50: > 300 µM

## CC(C(=O)N1CCCc2ccccc21)N1CCN(C(=O)c2ccccc2)CC1 (stereo not shown) [Compound 25]
[1]; [5]
  IC50: > 50 µM
[2]; [6]
  IC50: > 50 µM

## O=C(c1ccccn1)N1CCN(S(=O)(=O)c2ccc3ccccc3c2)CC1 [Compound 1]
[1]; [5]
  IC50: > 300 µM
[2]; [6]
  IC50: > 300 µM

## Cc1nn(C)c2nc(-c3cccs3)cc(C(=O)N3CCN(C(=O)c4ccccc4)CC3)c12 [Compound 38]
[1]; [5]
  IC50: > 50 µM
[2]; [6]
  IC50: > 50 µM

## O=C(C1=Cc2cc(Br)ccc2OC1)N1CCN(C(=O)c2ccccc2)CC1 [Compound 19]
[1]; [5]
  IC50: > 300 µM
[2]; [6]
  IC50: > 300 µM

## O=C(C(=O)N1CC2C=NN(c3ccccc3)C2C1)c1c[nH]c2c(-n3ccnn3)ncc(F)c12 (stereo not shown) [SC38, 1-(4-fluoro-7-(1H-1,2,3-triazol-1-yl)-1H-pyrrolo[2,3-c]pyridin-3-yl)-2-(1-phenyl-3a,4,6,6a-tetrahydropyrrolo[3,4-c]pyrazol-5(1H)-yl)ethane-1,2-dione]
[3]
  IC50: 8 ± 3 nM

## Cc1ccc(C(C)C)c(OCC(=O)N2CCN(C(=O)c3ccccc3)CC2)c1 [Compound 18]
[1]; [8]
  IC50: > 300 µM
[2]; [9]
  IC50: > 300 µM

## O=C(CSc1ncnc2sccc12)N1CCN(C(=O)c2cccs2)CC1 [Compound 28]
[1]; [5]
  IC50: 1.6 ± 0.4 µM
[2]; [6]
  IC50: > 50 µM

## Cc1nn(-c2ccccc2)c(C)c1C(=O)C(=O)N1CCN(C(=O)c2ccccc2)CC1 [Compound 36]
[1]; [8]
  IC50: > 50 µM
[2]; [9]
  IC50: > 50 µM

## O=C(c1ccccc1)N1CCN(C(=O)c2cc(-c3ccncc3)nc3ccccc23)CC1 [Compound 27]
[1]; [5]
  IC50: > 50 µM
[2]; [6]
  IC50: > 50 µM

## O=C(CSC1=Nc2ccccc2CS1)N1CCN(C(=O)c2cccs2)CC1 [Compound 41]
[1]; [5]
  IC50: > 50 µM
[2]; [6]
  IC50: > 50 µM

## COc1cnc(-n2cnc(C)n2)c2[nH]cc(C(=O)C(=O)N3CC4CN(C(=O)c5ccccc5)CC4C3)c12 (stereo not shown) [SC11, 1-(5-benzoylhexahydropyrrolo[3,4-c]pyrrol-2(1H)-yl)-2-(4-methoxy-7-(3-methyl-1H-1,2,4-triazol-1-yl)-1H-pyrrolo[2,3-c]pyridin-3-yl)ethane-1,2-dione]
[2]; single round infection assay, in words
  specificity to HIV-1 (inhibition of AMLV-pseudotyped HIV-1): retaining HIV-1 specificity
[4]; [10]
  IC50: 0.8 ± 0.4 nM

## O=C(c1cnccn1)N1CCN(C(=O)c2cc3ccccc3cc2O)CC1 [Compound 24]
[1]; [5]
  IC50: > 300 µM
[2]; [6]
  IC50: > 300 µM

## COc1ccc(OC)c(CCC(=O)N2CCN(C(=O)c3cccc(OC(F)F)c3)CC2)c1 [Compound 44]
[1]; [5]
  IC50: > 50 µM
[2]; [6]
  IC50: > 50 µM

## Cc1cc(C)nc(SCC(=O)N2CCN(C(=O)c3ccccc3)CC2)n1 [Compound 34]
[1]; [5]
  IC50: 19.4 µM
[2]; [6]
  IC50: > 50 µM

## Cc1c(C)c(C)c(S(=O)(=O)N2CCN(C(=O)c3cccnc3O)CC2)c(C)c1C [Compound 21]
[1]; [5]
  IC50: > 300 µM
[2]; [6]
  IC50: > 300 µM

## CCN(CC)S(=O)(=O)N1CCN(C(=O)C(=O)c2c(C)[nH]c3ccccc23)CC1 [Compound 48]
[1]; [5]
  IC50: > 50 µM
[2]; [6]
  IC50: > 50 µM

## COc1ccc(OC)c(/C=C/C(=O)N2CCN(C(=O)C3CC3)CC2)c1 [Compound 45]
[1]; [5]
  IC50: > 50 µM
[2]; [6]
  IC50: > 50 µM

## O=C(CSc1nnnn1C1CCCC1)N1CCN(C(=O)c2cccs2)CC1 [Compound 30]
[1]; [5]
  IC50: > 50 µM
[2]; [6]
  IC50: > 50 µM

## O=C(c1ccco1)N1CCN(C(O)COc2ccc(Cl)cc2[N+](=O)[O-])CC1 (stereo not shown) [Compound 39]
[1]; [5]
  IC50: > 50 µM
[2]; [6]
  IC50: > 50 µM

## CC(C)n1ncc2c(C(=O)N3CCN(C(=O)c4ccccc4)CC3)cc(-c3ccco3)nc21 [Compound 37]
[1]; [5]
  IC50: > 50 µM
[2]; [6]
  IC50: > 50 µM

## Cc1ccc2nc(C)c(C(=O)N3CCN(C(=O)c4ccccc4)CC3)cc2c1 [Compound 9]
[1]; [5]
  IC50: > 300 µM
[2]; [6]
  IC50: > 300 µM

## O=C(COc1cccc(Br)c1)N1CCN(C(=O)c2ccccc2)CC1 [Compound 6]
[1]; [5]
  IC50: > 300 µM
[2]; [6]
  IC50: > 300 µM

## COc1ccc(Cl)cc1C(=O)Cn1c(=O)oc2cc(S(=O)(=O)N3CCOCC3)ccc21 [Compound 43]
[1]; [5]
  IC50: > 50 µM
[2]; [6]
  IC50: > 50 µM

## O=C(c1ccccc1)N1CCN(C(=O)c2ccc3c4c(cccc24)CC3)CC1 [Compound 11]
[1]; [8]
  IC50: 15.7 µM
[2]; [6]
  IC50: > 300 µM

## COc1ccc(Br)cc1C=CC(=O)N1CCC(C(=O)c2ccccc2)CC1 [Compound 15]
[1]; [5]
  IC50: 156 µM
[2]; [6]
  IC50: 210 µM

## COc1ccc(O)cc1NCC(=O)N1CCN(S(=O)(=O)c2ccc3c(c2)CCC3)CC1 [Compound 42]
[1]; [5]
  IC50: > 50 µM
[2]; [6]
  IC50: > 50 µM

## CCc1cc(C(=O)N2CCN(C(=O)c3ccccc3)CC2)sc1C [Compound 5]
[1]; [5]
  IC50: > 300 µM
[2]; [6]
  IC50: > 300 µM

## O=C(COc1cccc2ccccc12)N1CCN(C(=O)c2ccccc2F)CC1 [Compound 33]
[1]; [5]
  IC50: > 50 µM
[2]; [6]
  IC50: > 50 µM

## O=C(c1ccccn1)N1CCN(S(=O)(=O)c2ccc3c(c2)OCCO3)CC1 [Compound 3]
[1]; [5]
  IC50: > 300 µM
[2]; [6]
  IC50: > 300 µM

## O=C(c1ccccc1)N1CCN(S(=O)(=O)c2ccc(Cl)c(C(F)(F)F)c2)CC1 [Compound 4]
[1]; [5]
  IC50: > 300 µM
[2]; [6]
  IC50: > 300 µM

## Cc1ccc(C(C)C)c(OCC(=O)N2CCN(C(=O)c3ccccc3)CC2)c1 [Compound 49]
[1]; [8]
  IC50: > 50 µM
[2]; [9]
  IC50: > 50 µM

## Cc1nn(-c2ccccc2)c(C)c1C(=O)C(=O)N1CCN(C(=O)c2ccccc2)CC1 [Compound 20]
[1]; [8]
  IC50: > 300 µM
[2]; [9]
  IC50: > 300 µM

## O=C(c1ccccc1)N1CCN(C(=O)c2csc(-c3ccccc3)n2)CC1 [Compound 16]
[1]; [5]
  IC50: > 300 µM
[2]; [6]
  IC50: > 300 µM

## O=C(c1ccccc1)N1CC2CN(C(=O)c3ccc4c5c(cccc35)CC4)CC2C1 (stereo not shown) [SC04, (5-benzoylhexahydropyrrolo[3,4-c]pyrrol-2(1H)-yl)(1,2-dihydroacenaphthylen-5-yl)methanone]
[1]; [5]
  IC50: 70 ± 6 µM
[4]; [10]
  IC50: 100000 ± 30000 nM

## CCc1ccc(C(=O)N2CCN(C(=O)c3cc4cc(C)ccc4nc3C)CC2)cc1 [Compound 22]
[1]; [5]
  IC50: > 300 µM
[2]; [6]
  IC50: > 300 µM

## CCOC(=O)N1CCN(C(=O)C(=O)c2c(C)[nH]c3ccccc23)CC1 [Compound 31]
[1]; [5]
  IC50: > 50 µM
[2]; [6]
  IC50: > 50 µM

## O=C(c1ccccc1)N1CCN(C(=O)c2ccc3c4c(cccc24)CC3)CC1 [SC03, (4-benzoylpiperazin-1-yl)(1,2-dihydroacenaphthylen-5-yl)methanone]
[1]; [5]
  IC50: 13.1 ± 1.7 µM
[4]; [7]
  IC50: 420 ± 280 nM

## COc1ccc(C(=O)N2CCN(C(=O)COc3cccc4ccccc34)CC2)cc1 [Compound 50]
[1]; [5]
  IC50: > 50 µM
[2]; [6]
  IC50: > 50 µM

## O=C(c1cc(-c2ccc(Cl)cc2)on1)N1CCN(S(=O)(=O)c2ccccc2F)CC1 [Compound 14]
[1]; [5]
  IC50: > 300 µM
[2]; [6]
  IC50: > 300 µM

## O=C(Cc1cccc2ccccc12)N1CCN(C(=O)c2ccco2)CC1 [Compound 32]
[1]; [5]
  IC50: 22.8 µM
[2]; [6]
  IC50: > 50 µM

## O=C(c1ccccc1)N1CCN(C(=O)c2ccc3c(c2)CCC3)CC1 [Compound 8]
[1]; [5]
  IC50: > 300 µM
[2]; [6]
  IC50: > 300 µM

## Cc1nc2ccc(Cl)cc2cc1C(=O)N1CCN(S(=O)(=O)c2ccccc2)CC1 [Compound 17]
[1]; [5]
  IC50: 193 µM
[2]; [6]
  IC50: 238 µM

## COc1cccc(C(=O)N2CCN(C(=O)COc3cccc4ccccc34)CC2)c1 [Compound 47]
[1]; [5]
  IC50: > 50 µM
[2]; [6]
  IC50: > 50 µM

## O=C1CSc2ccc(C(=O)N3CCN(C(=O)c4cccs4)CC3)cc2N1 [Compound 7]
[1]; [5]
  IC50: > 300 µM
[2]; [6]
  IC50: > 300 µM

## O=C(c1ccccc1)N1CCN(C(=O)c2ccc3noc(-c4ccccc4)c3c2)CC1 [Compound 46]
[1]; [5]
  IC50: > 50 µM
[2]; [6]
  IC50: > 50 µM
